Reference: DBAASP
≈ marks a conversion by molar mass, not a printed value. Values belong to the compound of their own block, whether it stands above or below them.

What was measured:
Experiment in all cases: ≥ marks a high value that may be exact or a test limit, other limits are often not marked, values filed in µg/mL are converted to µM
[1] = tested on: Pseudomonas aeruginosa ATCC 10145
[2] = tested on: Candida albicans ATCC 10231
[3] = tested on: Cryptococcus neoformans ATCC 32045
[4] = tested on: Staphylococcus aureus ATCC 33591
[5] = tested on: Escherichia coli ATCC 2592
[6] = tested on: Lacticaseibacillus rhamnosus 1.9021
[7] = tested on: Lacticaseibacillus rhamnosus 1.0911
[8] = tested on: Escherichia coli ATCC 25922
[9] = tested on: Salmonella enterica subsp. enterica serovar Pullorum C79-13
[10] = tested on: Lacticaseibacillus rhamnosus 8014
[11] = tested on: Pseudomonas aeruginosa PAO1
[12] = tested on: Staphylococcus epidermidis ATCC 12228
[13] = tested on: Streptococcus agalactiae BNCC 185941
[14] = tested on: Salmonella enterica subsp. enterica serovar Typhimurium ATCC 14028
[15] = tested on: Escherichia coli O157:H7 CICC 21530
[16] = tested on: Staphylococcus aureus ATCC 29213
Escherichia coli K88 = tested on: Escherichia coli K88
[17] = tested on: Pseudomonas aeruginosa ATCC 27853
[18] = tested on: Salmonella enterica subsp. enterica serovar Choleraesuis CVCC 503
[19] = tested on: Lacticaseibacillus rhamnosus 1.0936
[20] = tested on: Staphylococcus aureus ATCC 43300
[21] = tested on: Pseudomonas aeruginosa H187
Escherichia coli UB1005 = tested on: Escherichia coli UB1005
[22] = tested on: Enterococcus faecalis 1F-1
[23] = tested on: Proteus mirabilis ATCC 35659
[24] = tested on: Bacillus cereus ATCC 14579
[25] = tested on: Enterococcus faecium 5F-10
[26] = tested on: Bacillus licheniformis ATCC 14580
[27] = tested on: Bacillus amyloliquefaciens ATCC 23842
[28] = tested on: Salmonella enterica ATCC H9812
[29] = tested on: Bacillus subtilis ATCC 6051
[30] = tested on: Cronobacter sakazakii ATCC 29544
[31] = tested on: Staphylococcus aureus ATCC 25923
[32] = tested on: Listeria monocytogenes CMCC 54004
[33] = tested on: Salmonella enterica subsp. enterica CMCC 47020
[34] = tested on: Bacillus cereus CMCC 6303
[35] = tested on: Salmonella enterica subsp. enterica serovar Typhimurium C77-31
[36] = tested on: Salmonella enterica subsp. enterica serovar Typhi CMCC 50071
[37] = tested on: Staphylococcus aureus CMCC 26074
[38] = tested on: Staphylococcus epidermidis KCTC 1917
[39] = tested on: Bacillus subtilis KCTC 3068
[40] = tested on: Pseudomonas aeruginosa KCTC 1637
[41] = tested on: Escherichia coli KCTC 1682
[42] = tested on: Staphylococcus aureus KCTC 1621
[43] = tested on: Salmonella typhimurium KCTC 1926

MIC [1]: ≥ 1010 µM | MIC [2]: > 1010 µM | MIC [3]: ≥ 1010 µM | MIC [4]: ≥ 1010 µM | MIC [5]: ≥ 507 µM
Compound: C[C@H](NC(=O)[C@H](Cc1ccccc1)NC(=O)[C@@H](N)CCCCN)C(=O)N[C@@H](CCCCN)C(=O)O [KFAK]

MIC [1]: ≥ 39 µM | MIC [2]: > 78 µM | MIC [3]: 19.6 µM (≈ 63 µg/mL) | MIC [5]: 13.7 µM (≈ 43.8 µg/mL)
Compound: C[C@H](NC(=O)[C@H](CCCCN)NC(=O)[C@H](CCCCN)NC(=O)[C@H](CCCCN)NC(=O)[C@H](C)NC(=O)[C@H](CCCCN)NC(=O)[C@H](CCCCN)NC(=O)[C@H](CCCCN)NC(=O)[C@H](C)NC(=O)[C@H](CCCCN)NC(=O)[C@H](CCCCN)NC(=O)[C@H](CCCCN)NC(=O)[C@H](C)NC(=O)[C@H](CCCCN)NC(=O)[C@H](CCCCN)NC(=O)[C@H](CCCCN)NC(=O)[C@H](C)NC(=O)[C@H](CCCCN)NC(=O)[C@H](CCCCN)NC(=O)[C@H](CCCCN)NC(=O)[C@H](C)NC(=O)[C@H](CCCCN)NC(=O)[C@H](CCCCN)NC(=O)[C@H](CCCCN)NC(=O)[C@H](C)NC(=O)[C@H](CCCCN)NC(=O)[C@@H](N)CCCCN)C(=O)N[C@@H](CCCCN)C(=O)O [KKAKKKAKKKAKKKAKKKAKKKAKKKAK]

MIC [6]: ≥ 128 µM | MIC [7]: ≥ 128 µM | MIC [8]: > 128 µM | MIC [9]: ≥ 64 µM | MIC [10]: ≥ 128 µM | MIC [11]: > 128 µM | MIC [12]: > 128 µM | MIC [13]: ≥ 128 µM | MIC [14]: > 128 µM | MIC [15]: ≥ 128 µM | MIC [16]: > 128 µM | MIC (Escherichia coli K88): ≥ 64 µM | MIC [17]: > 128 µM | MIC [19]: ≥ 128 µM | MIC [20]: > 128 µM
Compound: CC(C)C[C@H](NC(=O)CNC(=O)[C@H](Cc1c[nH]c2ccccc12)NC(=O)CNC(=O)[C@H](CC(C)C)NC(=O)[C@H](CC(C)C)NC(=O)[C@H](CCCCN)NC(=O)[C@@H](N)CCCCN)C(=O)N[C@@H](CC(C)C)C(=O)N[C@@H](CCCCN)C(=O)N[C@@H](CCCCN)C(N)=O [KKLLGWGLLKK]
MIC [18]: ≥ 128 µM

MIC [21]: 3.43 µM (≈ 10 µg/mL) | MIC (Escherichia coli UB1005): 1.72 µM (≈ 5 µg/mL)
Compound: CC[C@H](C)[C@H](NC(=O)[C@H](Cc1ccccc1)NC(=O)[C@H](CCCCN)NC(=O)[C@H](CCCCN)NC(=O)[C@H](Cc1c[nH]c2ccccc12)NC(=O)[C@@H](N)CCCCN)C(=O)N[C@@H](CCCCN)C(=O)N[C@@H](CCC(=O)O)C(=O)N[C@@H](CC(C)C)C(=O)N[C@@H](CCC(N)=O)C(=O)N[C@@H](CCCCN)C(=O)N[C@H](C(=O)N[C@@H](CC(C)C)C(=O)N[C@@H](C)C(=O)N1CCC[C@H]1C(=O)NCC(=O)NCC(=O)N[C@@H](CC(C)C)C(=O)N[C@@H](CC(C)C)C(=O)N[C@@H](CO)C(=O)N[C@@H](CC(N)=O)C(=O)N[C@H](C(=O)N[C@H](C(=O)N[C@H](C(=O)N[C@@H](CO)C(=O)N[C@@H](CC(C)C)C(=O)O)[C@@H](C)O)C(C)C)[C@@H](C)CC)C(C)C [KWKKFIKELQKVLAPGGLLSNIVTSL]

MIC [22]: ≥ 218 µM | MIC [8]: > 218 µM | MIC [11]: > 218 µM | MIC [23]: ≥ 218 µM | MIC [16]: > 218 µM | MIC [24]: ≥ 218 µM | MIC [25]: ≥ 218 µM | MIC [26]: ≥ 218 µM | MIC [27]: ≥ 218 µM | MIC [28]: ≥ 218 µM | MIC [29]: ≥ 218 µM
Compound: CC(C)C[C@H](NC(=O)[C@@H](N)CC(C)C)C(=O)N[C@@H](CO)C(=O)N[C@@H](CCCN=C(N)N)C(=O)N[C@H](C(=O)O)C(C)C [LLSRV]

MIC (Escherichia coli UB1005): ≥ 256 µM | MIC [30]: ≥ 256 µM | MIC [9]: ≥ 256 µM | MIC [31]: > 256 µM | MIC [32]: ≥ 32 µM | MIC [14]: 128 µM (≈ 209 µg/mL) | MIC [33]: ≥ 256 µM | MIC [34]: ≥ 128 µM | MIC [35]: ≥ 256 µM | MIC [36]: ≥ 256 µM | MIC [37]: ≥ 256 µM
Compound: CC[C@H](C)[C@H](NC(=O)[C@H](CCCN=C(N)N)NC(=O)[C@H](CCCN=C(N)N)NC(=O)[C@H](CCCCN)NC(=O)[C@@H](N)CCCN=C(N)N)C(=O)N[C@H](C(=O)N[C@H](C(=O)N[C@H](C(=O)N[C@@H](CCCN=C(N)N)C(=O)N[C@@H](CCCN=C(N)N)C(=O)N[C@@H](CCCCN)C(=O)N[C@@H](CCCN=C(N)N)C(N)=O)[C@@H](C)CC)C(C)C)C(C)C [RKRRIVVIRRKR]

MIC [38]: 4.21 µM (≈ 6.24 µg/mL) | MIC [39]: 4.21 µM (≈ 6.24 µg/mL) | MIC [40]: 16.8 µM (≈ 25 µg/mL) | MIC [41]: 8.41 µM (≈ 12.5 µg/mL) | MIC (Escherichia coli UB1005): ≥ 128 µM | MIC [30]: ≥ 256 µM | MIC [9]: ≥ 256 µM | MIC [31]: > 256 µM | MIC [32]: ≥ 128 µM | MIC [14]: 128 µM (≈ 190 µg/mL) | MIC [33]: ≥ 128 µM | MIC [34]: ≥ 64 µM | MIC [35]: ≥ 256 µM | MIC [36]: ≥ 64 µM | MIC [42]: 4.21 µM (≈ 6.24 µg/mL) | MIC [43]: 4.21 µM (≈ 6.24 µg/mL) | MIC [37]: ≥ 256 µM
Compound: CC[C@H](C)[C@@H]1NC(=O)[C@H](CCCN=C(N)N)NC(=O)[C@@H](NC(=O)[C@H](CC(C)C)NC(=O)[C@@H](N)CCCN=C(N)N)CSSC[C@@H](C(=O)N[C@@H](CCCN=C(N)N)C(N)=O)NC(=O)[C@H](C(C)C)NC(=O)[C@H](CCCN=C(N)N)NC(=O)[C@H]([C@@H](C)CC)NC(=O)[C@H](C(C)C)NC(=O)[C@H](C(C)C)NC1=O [RLCRIVVIRVCR]
